Data on four compounds can be found in patent US20250186438A1, “TREATMENT OF CLEAR CELL RENAL CELL CARCINOMA” (RACE ONCOLOGY LTD, priority 2022, published 2025).

Structures can show the parent of a compound that is named as a salt. Where two headings read alike, the source gives them in different places.

In series [1] the test system is RCC4 EV cells (VHL(−) mutant). Nature of the series: Resazurin cell viability assay (combination synergy analysis; cytotoxic IC50). The note with it: Homo sapiens, RCC4, 72 h, read-out: Cytotoxic IC50. How it is done: (§1) Cell viability was determined using a resazurin metabolic activity assay.
(§2) Resazurin is metabolised into the red-fluorescent resorufin by metabolically active cells. […] Graphpad Prism 9 software was used to generate graphs. Drug IC50 values were determined by cubic spline-lowess regression analysis using Prism 9. At least three independent replicates were performed for each cell line and each drug combination, and data is represented as mean±standard error of the mean (SEM). The culture conditions for each cell line are described below.
(§3) Detail on each of the methods is provided below.
(§4) Using the Henderson-Hasselbalch, Michaelis-Menten, Scatchard, and Hill equations, Chou and Talaly derived the “median-effect” equation to model the median effect dose and sigmoidicity of the dose-response curve, using the inputted doses and corresponding dose-effects. Chou and Talalay also coined the term “CombinationIndex (CI)” to evaluate the degree of synergy between two compounds, defined as: […]
(§5) Within SynergyFinder the Bliss model was used. This model quantifies the degree of synergy as the multiplicative effect of single drugs as if they acted independently. This independence model assumes a stochastic process in which two drugs elicit their effects independently, and the expected combination effect can be calculated based on the probability of independent events.

Series [2] concerns RCC4 EV cells (VHL(−) mutant). The series is described as follows: Clonogenicity assay (colony formation). The series is classed as cell-based. Particulars: Homo sapiens, ccRCC, VHL status Mut, 96 h drug then 96 h drug-free, read-out: Clonogenic IC50. The protocol: (§6) Clonogenicity assays—Clonogenicity assays were used to determine the colony-forming ability of cells treated with Zantrene. RCC4EV and RCC4 VHL Cells were seeded into 6-well plates at 1000 cells/well and allowed to adhere for 24 h. […] Drug-containing media was removed and replaced with freshmedia (without drug) and cultured for an additional 96 h to allow the formation of cell colonies. At endpoint, media was removed from wells and cells washed with cold PBS twice. Cells were fixed with ice-cold methanol for 10 minutes on ice followed immediately by staining with crystal violet solution (0.5% crystal violet, 25% methanol in PBS) at room temperature. Excess crystal violet solution was washed away and pictures of plates capturedon a ChemiDoc MP Imaging System (Bio-Rad). Images were analysed using the ColonyArea plugin [Guzman C. et al (2014), “ColonyArea: an ImageJ plugin to automatically quantify colony formation in clonogenic assays”, PLoS One, 9(3):e92444] for ImageJ [Schneider C. A. et at (2012), “NIH Image to ImageJ: 25 years of image analysis”, Nat Methods 9(7):671-675] and the percent area of the well filled by colonies determined and presented as % of untreated cells using Prism 9. Four independent replicates were performed for each cell line and data is represented as mean±SEM.

The subject of series [3] is RCC4 VHL cells (VHL rescue line). The series is described as follows: Clonogenicity assay (colony formation). The format is cell-based. Particulars: Homo sapiens, ccRCC, VHL status Mut + WT, 96 h drug then 96 h drug-free, read-out: Clonogenic IC50. How it is done:
as §6

The conditions of series [4]: cited from earlier work.
The subject of a further series is 786-O cells. The series is described as follows: Resazurin cell viability assay, drug combinations with synergy analysis. The format is cell-based, Human. Particulars: 786-0 cell line; each drug in combination with zantrene; FIG. 1-3. How it is done: as §1, §2, §3
It estimates the expected additive effect of two drugs using the fractional product of the effect of each drug alone, ie:
An observed Fa(Drug1+Drug2) value greater than the expected Fa(Drug1+Drug2) value result indicates synergy, whereas an observed Fa(Drug1+Drug2) lower than the expected value indicates antagonism.
as §4, §5

Where [5] appears, read: 5-day schedule of 60 min infusions.
Where [6] appears, read: another trial, doses of 80-250 mg/m2.
[7] abbreviates: patients, 90 min infusion at 260 mg/m2, biphasic elimination.
Where [8] appears, read: patients, 90 min infusion at 260 mg/m2.
Where [9] appears, read: single dose study, triphasic elimination, first of three.
The mark [10] stands for this setting: single dose study, triphasic elimination, second of three.

By IC50 is commonly meant the concentration at which inhibition is half-maximal. On to `C(=NNC1=NCCN1)c1c2ccccc2c(C=NNC2=NCCN2)c2ccccc12` [bisantrene, 9,10-anthracenedicarboxaldehyde bis[(4,5 dihydro-1H-imidazo-2-yl)hydrazine]dihydrochloride], for which the IC50 in series [1] was 907 nM. Also, in series [2], the IC50 was 167 nM. Also, the IC50 in series [3] was 483 nM. For the same compound, in series [4] (setting [5]), the “Dose excreted in the urine” value is reported as 7.1%, the “t½ α” value is 0.9 h and the “t½ β” value is listed as 9.7 h. Moreover, the Plasma concentration in series [4] (72 h infusion study, dose of 56 mg/m2) was 12 ± 6 ng/mL. In series [4] (72 h infusion study, dose of 260 mg/m2), the Plasma concentration was 55 ± 8 ng/mL. Further, the Plasma clearance in series [4] (72 h infusion study) was 1306±179 mL/min/m2. For the same compound, in series [4] (setting [6]), the “Calculated volume of distribution” value is 42.1 ± 5.9 L/kg, the Clearance was 17.425 ± 0.85 mL/min/kg, the Initial half-life is reported as 0.6 h and the Terminal half-life was 24.7 h. In addition, in series [4] (in 24 h, 90 min infusion at 260 mg/m2), the “Administered dose excreted unchanged in the urine” value is reported as 11.3%. The “Urinary excretion of the dose” value in series [4] (in 24 h, 72 h infusion study) is 4.6%. In addition, the Volume of distribution in series [4] (one report, interpreted as tissue sequestration with depot effect) was 687 L/m2. Also, in series [4] (over 96 h, doses of 80-250 mg/m2), the “Administered dose found in the urine” value is reported as 3.4±1.1%. In addition, in series [4] (setting [7]), the Initial half-life was 1.08 ± 0.25 h and the Terminal half-life is 19.03 ± 3.77 h. Further, in series [4] (setting [8]), the Plasma clearance is recorded as 735 mL/min/m2 and the “Steady state volume of distribution (Vdss)” value is given as 1845 L/m2. Further, in series [4] (setting [9]), the “t½ α” value is 0.0573 h, the “t½ β” value is on record as 1.33 h and the “t½ γ” value was 26.13 h. In addition, in series [4] (setting [10]), the “t½ α” value is 0.05 h, the “t½ β” value is 1 h and the “t½ γ” value was 8 h.
As to `CNC(=O)c1cc(Oc2ccc(NC(=O)Nc3ccc(Cl)c(C(F)(F)F)c3)cc2)ccn1` [sorafenib], the “Combination effect with zantrene, method of Webb analysis” value in the series on 786-O cells was “Synergy”.
Still for that read-out and setting: for `CO[C@H]1C[C@@H]2CC[C@@H](C)[C@@](O)(O2)C(=O)C(=O)N2CCCC[C@H]2C(=O)O[C@H]([C@H](C)C[C@@H]2CC[C@@H](OCCO)[C@H](OC)C2)CC(=O)[C@H](C)/C=C(\C)[C@@H](O)[C@@H](OC)C(=O)[C@H](C)C[C@H](C)/C=C/C=C/C=C/1C` [everolimus] the value was “Synergy”; for `COc1cc2nccc(Oc3ccc(NC(=O)NC4CC4)c(Cl)c3)c2cc1C(N)=O` [lenvatinib], “strongest synergy”.
